Reference: the NIST ThermoML archive (doi:10.1016/j.fluid.2005.08.021)
± gives the expanded uncertainty stated by the source.

Conditions: Crystal; visual observation

In order of rising Normal melting temperature:
1. CC(C)(C)O [2-methylpropan-2-ol]  25.6 ± 0.4 °C
2. Oc1cccc(Cl)c1 [3-chlorophenol]  32.4 ± 0.4 °C
3. Oc1ccc(Cl)cc1 [4-chlorophenol]  42.5 ± 0.4 °C
